“Also recorded” adds a separate entry of the source.

Five substances from patent US20240209061A1, “FUSION PROTEINS AND USES THEREOF” (Pfizer Inc., priority 2020, published 2024) can be followed below.

The test system of test [1] is EMT6 murine breast cancer cells. The test is described as follows: EMT6 murine breast cancer model. The format is in vivo, mouse. The following applies: for Day 17 tumor volume: Days 0 and 3; for % tumor growth inhibition: Day 17; for # IFNγ-producing spots, Spleen / # IFNγ-producing spots, TDLN: average of n = 4 mice; for CD8^+ T cell infiltrates (% CD45): EMT6, n=4. As for the experimental part: EMT6 murine breast cancer cells (3×10^5) were orthotopically implanted in the mammary fat pad of female Balb/c mice. When tumors reached ˜90 mm^3 (day 5 after implantation), mice were randomized. PBS vehicle control or variant CD80-Fc fusion proteins were dosed intravenously at 0.01, 0.1, 1.0 and 3.0 mg/kg on Days 0 and 3. Tumor volume was determined by caliper measurements obtained in 2 dimensions and calculated as width^2×length/2. Error bars are depicted as ±SEM.
Tumor-reactive T cells in the spleen and tumor-draining lymph nodes (TDLNs) were measured by IFNγ ELIspot in mice treated with CD80-K89D-D90K-T28V-T57V-Fc.
(§1) Cytotoxic CD8^+ T cells are responsible for killing cancer cells and the measurement of CD8^+ T cells that have infiltrated tumors commonly correlates with efficacy for immune-oncology therapies. For all in vivo studies, tumors were collected ˜1 week after the first dose and dissociated by mincing, followed by incubation in an enzymatic digestion cocktail and homogenization. The resulting cell suspension was filtered and washed, and single cells were stained with antibodies to CD45, CD8, and a viability dye to detect tumor-infiltrating lymphocytes (TILs) by flow cytometry. Data were acquired on a BD LSRFortessa flow cytometer or a Cytek Aurora spectral flow cytometer. Table 31 and FIG. 18 show the amount of tumor-infiltrating CD8+ T cells expressed as a percentage of total immune cells (CD45+). Each value is the average of n=4 mice per group. Treatment with all variant CD80-Fc fusion proteins led to increase in CD8+ TILs in various tumor models.

For test [2], the system named is MC38 murine colorectal carcinoma cells. The test is described as follows: MC38 murine colorectal carcinoma model, IV and SC dosing. The format is in vivo, mouse. The following applies: for CD8^+ T cell infiltrates (% CD45): MC38, n=4. How it is done:
MC38 murine colorectal carcinoma cells (5×10^5) were subcutaneously implanted in the hind flank of female […] mice. When tumors reach ˜50 mm^3 (day 6 after implantation), mice were randomized. PBS vehicle control or variant CD80-Fc fusion proteins were dosed intravenously (IV) or subcutaneously (SC) with doses ranging from 0.01-3.0 mg/kg on Days 0 and 3. Tumor volume was determined by caliper measurements obtained in 2 dimensions and calculated as width^2×length/2. Error bars are depicted as ±SEM.
as §1

In the next test the target is human PD-L1 (Homo sapiens, UniProt Q9NZQ7). The test is described as follows: SPR (Biacore) binding to immobilized human PD-L1. The conditions noted are these: Human PD-L1 immobilized at 60 μg/ml and 75 μg/ml. As for the experimental part: (physiologic temperature) with a collection rate of 10 Hz. Purified soluble ligands were covalently coupled onto a CM5 sensor chip using an Amine coupling Kit (GE Healthcare, Product #BR100050) following the manufacturer's recommendations. […] The flow was again returned to running buffer and dissociation was monitored for 300 sec. Binding affinities and rate constants were determined by fitting the resulting double referenced (Myszka, D. G. J. Mol. Recognit. 12, 279-284 (1999)) sensorgram data to a 1:1 Langmuir model with Biacore Insight Evaluation software version 2.0 (GE Healthcare).
Sequence of human PD-L1 (Q9NZQ7 19-238 limits assumed): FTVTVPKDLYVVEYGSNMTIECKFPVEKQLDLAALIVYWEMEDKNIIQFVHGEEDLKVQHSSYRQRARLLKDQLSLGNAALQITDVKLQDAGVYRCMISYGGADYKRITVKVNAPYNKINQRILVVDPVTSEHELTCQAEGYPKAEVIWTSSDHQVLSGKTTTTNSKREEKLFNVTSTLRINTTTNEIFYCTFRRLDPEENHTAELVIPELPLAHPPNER
Binding of variant CD80-Fc to PD-L1 was not detected. FIG. 9A-9D show the SPR sensorgrams depicting binding of varying concentrations of CD80-WT-Fc and CD80-K89D-D90K-T28V-T57V-Fc to two different concentrations of immobilized human PD-L1 (60 μg/ml and 75 μg/ml).

The target in another test is T1, recombinant soluble CD28 (Homo sapiens, UniProt P10747).
T1 construct: Recombinant soluble CD28 and CTLA-4 proteins (from Creative BioMart, Product #CD28-3910H, CTLA-4-2232H) were immobilized; purchased Creative BioMart CD28-3910H
The test is described as follows: ELISA binding to recombinant soluble CD28. The conditions noted are these: standard ELISA, FIG. 2A. How it is done: Binding affinity of purified CD80-Fc fusion proteins (WT and variant) to recombinant soluble CD28 and CTLA-4 proteins was determined by standard ELISA. Recombinant soluble CD28 and CTLA-4 proteins (from Creative BioMart, Product #CD28-3910H, CTLA-4-2232H) were immobilized on 96 well microtiter plate (Thermo Scientific, Product #436110) in bicarbonate buffer at 4° C. overnight. After washing with 1×PBS containing 0.05% Tween 20 (wash buffer) plates were incubated with blocking buffer, 5% BSA in PBS, for 1 hour at room temperature. A serial dilution of CD80-Fc fusion proteins and human IgG1 isotype control antibody was prepared in blocking buffer, added into the plate and incubated at room temperature for 1 hour. Following washing 3× with wash buffer, 1:4000 dilution of HRP conjugated secondary anti-human IgG1 antibody (R&D Systems, MAB110-100) was added into the plate and incubated at room temperature for 1 hour. Plates were washed 3× with wash buffer and a 100 μl of LumiGlo (SeraCare, Product #5430-0040) reagent added into each well, incubated for 5 minutes at room temperature before reading luminescence signal in EnSight™ plate reader (PerkinElmer).
Background: ELISA stands for enzyme-linked immunosorbent assay.

With “CD80-K89Q-D90Q-E23C-A26C-Fc: disulfide stabilized variant CD80-Fc fusion protein (K89Q, D90Q, E23C, A26C)”, the “Day 17 tumor volume” value is given as 1581.7 mm^3 in test [1] (0.01 mg/kg IV), 912.2 mm^3 in test [1] (0.1 mg/kg IV), 357.2 mm^3 in test [1] (1 mg/kg IV) and 457.5 mm^3 in test [1] (3 mg/kg IV). Moreover, the “% tumor growth inhibition” value in test [1] (0.01 mg/kg) is on record as −1.7%; in test [1] (0.1 mg/kg), 43.7%; in test [1] (1 mg/kg), 81.4%; in test [1] (3 mg/kg), 74.6%; in test [2] (Day 16, Intravenous 0.01 mg/kg), 31.2%; in test [2] (Day 16, Intravenous 0.1 mg/kg), 37.7%. Besides, the “% tumor growth inhibition” value amounted to 64.2% in test [2] (Day 16, Intravenous 1 mg/kg); 93.0% in test [2] (Day 16, Intravenous 3 mg/kg); 64.2% in test [2] (Day 16, Subcutaneous 1.5 mg/kg); 83.7% in test [2] (Day 16, Subcutaneous 3 mg/kg). For the same substance, the “Day 16 tumor volume” value in test [2] (Intravenous 0.01 mg/kg) was 905.1 mm^3; in test [2] (Intravenous 0.1 mg/kg), 824.7 mm^3; in test [2] (Intravenous 1 mg/kg), 495.3 mm^3; in test [2] (Intravenous 3 mg/kg), 138.9 mm^3; in test [2] (Subcutaneous 1.5 mg/kg) it was 495.6 mm^3; in test [2] (Subcutaneous 3 mg/kg), 252.2 mm^3. Besides, the “CD8^+ T cell infiltrates (% CD45)” value in test [2] (0.01 mg/kg) was determined as 9.8 % CD45; in test [2] (0.1 mg/kg), 24.5 % CD45; in test [2] (1 mg/kg), 24.6 % CD45; in test [2] (3 mg/kg), 41.3 % CD45.

In the case of “CD80-WT-Fc: wild-type human CD80 extracellular domain fused to human IgG1 Fc (C220S) [reference compound]”, in the test with human PD-L1, the “binding to PD-L1” value is “detectable binding”.

For “CD80-K89D-D90K-T28V-T57V-Fc: non-cysteine stabilized variant CD80-Fc fusion protein (K89D, D90K, T28V, T57V)”, the “Day 17 tumor volume” value is 1552.0 mm^3 in test [1] (0.01 mg/kg IV), 981.2 mm^3 in test [1] (0.1 mg/kg IV), 818.8 mm^3 in test [1] (1 mg/kg IV) and 133.4 mm^3 in test [1] (3 mg/kg IV). Moreover, the “% tumor growth inhibition” value in test [1] (0.01 mg/kg) stood at 0.4%; in test [1] (0.1 mg/kg) it was 39.0%; in test [1] (1 mg/kg), 50.1%; in test [1] (3 mg/kg), 96.6%; in test [2] (Day 15, Intravenous 0.01 mg/kg) it was 17.9%; in test [2] (Day 15, Intravenous 0.1 mg/kg) it was 25.2%. Moreover, the “% tumor growth inhibition” value is 59.9% in test [2] (Day 15, Intravenous 1 mg/kg); 83.8% in test [2] (Day 15, Intravenous 3 mg/kg); 11.1% in test [2] (Day 15, Subcutaneous 0.01 mg/kg); 27.1% in test [2] (Day 15, Subcutaneous 0.1 mg/kg); 73.7% in test [2] (Day 15, Subcutaneous 1 mg/kg); 84.4% in test [2] (Day 15, Subcutaneous 3 mg/kg). The “# IFNγ-producing spots, Spleen” value came to 123.1 in test [1] (0.01 mg/kg), 117.9 in test [1] (0.1 mg/kg), 336.4 in test [1] (1 mg/kg) and 427.7 in test [1] (3 mg/kg). Besides, the “# IFNγ-producing spots, TDLN” value in test [1] (0.01 mg/kg) is on record as 51.9; in test [1] (0.1 mg/kg), 132.3; in test [1] (1 mg/kg), 475.2; in test [1] (3 mg/kg), 540.9. Besides, the “CD8^+ T cell infiltrates (% CD45)” value in test [1] (0.01 mg/kg) amounted to 3.98 % CD45; in test [1] (0.1 mg/kg), 9.59 % CD45; in test [1] (1 mg/kg) it was 15.91 % CD45; in test [1] (3 mg/kg) it was 8.19 % CD45; in test [2] (0.01 mg/kg), 6.26 % CD45; in test [2] (0.1 mg/kg), 10.81 % CD45. In addition, the “CD8^+ T cell infiltrates (% CD45)” value in test [2] (1 mg/kg) worked out at 23.58 % CD45. Moreover, the “binding to PD-L1” value with human PD-L1 is given as “undetectable; also recorded: No binding”. For the same substance, the “Day 15 tumor volume” value in test [2] (Intravenous 0.01 mg/kg) is 1042.1 mm^3; in test [2] (Intravenous 0.1 mg/kg), 954.8 mm^3; in test [2] (Intravenous 1 mg/kg) it was 535.3 mm^3; in test [2] (Intravenous 3 mg/kg), 248.1 mm^3; in test [2] (Subcutaneous 0.01 mg/kg) it was 1125.4 mm^3; in test [2] (Subcutaneous 0.1 mg/kg), 931.7 mm^3. Further, the “Day 15 tumor volume” value in test [2] (Subcutaneous 1 mg/kg) stood at 369.7 mm^3; in test [2] (Subcutaneous 3 mg/kg) it was 240.9 mm^3.

Consider “CD80-K89Q-D90Q-Fc: variant CD80 ECD (K89Q, D90Q) fused to human IgG1 Fc”, for which, in the test with recombinant soluble CD28, the “binding affinity to CD28 compared to WT CD80-Fc” value was “increased binding affinity to CD28”.

For “CD80-D90Q-Fc: variant CD80 ECD (D90Q) fused to human IgG1 Fc”, in the test with recombinant soluble CD28, the “binding affinity to CD28 compared to WT CD80-Fc” value is recorded as “increased binding affinity to CD28”.
